Measurements as given in US20100298141A1, “SUBSTITUTED PYRIDINE N-OXIDE HERBICIDES” (E. I. DU PONT DE NEMOURS AND COMPANY, priority 2007, published 2010).

Columns and labels:
[1] = tested on: windgrass; experiment: Test C pre-/postemergence test; assay type: in vivo, Apera spica-venti; details: Postemergence; for Plant response rating, Windgrass: scale 0 to 100, 0 no effect, 100 complete control
Description: Seeds of plant species selected from blackgrass (Alopecurus myosuroides), downy brome (Bromus tectorum), green foxtail (Setaria viridis), Italian ryegrass (Lolium multiflorum), wheat (Triticum aestivum), wild oat (Avena fatua), catchweed bedstraw (Galium aparine), Russian thistle (Salsola kali), […] (Cynodon dactylon), Surinam grass (Brachiaria decumbens), cocklebur (Xanthium strumarium), corn (Zea mays), crabgrass (Digitaria sanguinalis), woolly cupgrass (Eriochloa villosa), giant foxtail (Setaria faberii), Goosegrass (Eleusin indica), johnsongrass (Sorghum halepense), kochia (Kochia scoparia), lambsquarters (Chenopodium album), morningglory (Ipomoea coccinea), eastern black nightshade (Solanum ptycanthum), yellow nutsedge (Cyperus esculentus), pigweed (Amaranthus retroflexus), common ragweed (Ambrosia elation), soybean (Glycine max), common (oilseed) sunflower (Helianthus annuus), and velvetleaf (Abutilon theophrasti) were planted and treated preemergence with test chemicals formulated in a non-phytotoxic solvent mixture which included a surfactant. At the same time, plants selected from these crop and weed species and also winter barley (Hordeum vulgare), canarygrass (Phalaris minor), and chickweed (Stellaria media) were treated with postemergence applications of some of the test chemicals formulated in the same manner. Plants ranged in height from 2 to 18 cm (1- to 4-leaf stage) for postemergence treatments. […] At time of treatment, test pots were flooded to 3 cm above the soil surface, treated by application of test compounds directly to the paddy water, and then maintained at that water depth for the duration of the test. […] A dash (-) response means no test result.

[2] = tested on: winter barley; experiment: Test C postemergence test; assay type: in vivo, Hordeum vulgare; details: for Plant response rating (0 to 100), Barley: 31 g ai/ha; for Plant response rating, Barley: scale 0 to 100, 0 no effect, 100 complete control
Method: (§1) At the same time, plants selected from these crop and weed species and also winter barley (Hordeum vulgare), canarygrass (Phalaris minor), and chickweed (Stellaria media) were treated with postemergence applications of some of the test chemicals formulated in the same manner. Plants ranged in height from 2 to 18 cm (1- to 4-leaf stage) for postemergence treatments. […] At time of treatment, test pots were flooded to 3 cm above the soil surface, treated by application of test compounds directly to the paddy water, and then maintained at that water depth for the duration of the test. Treated plants and controls were maintained in a greenhouse for 13 to 15 days, after which time all species were compared to controls and visually evaluated. […] A dash (-) response means no test result.

[3] = tested on: canarygrass; experiment: Test C postemergence test; assay type: in vivo, Phalaris minor; details: for Plant response rating (0 to 100), Canarygrass: 31 g ai/ha; for Plant response rating, Canarygrass: scale 0 to 100, 0 no effect, 100 complete control
Method: as §1

[4] = tested on: chickweed; experiment: Test C postemergence test; assay type: in vivo, Stellaria media; details: for Plant response rating (0 to 100), Chickweed: 31 g ai/ha; for Plant response rating, Chickweed: scale 0 to 100, 0 no effect, 100 complete control
Method: as §1

| SMILES | Plant response rating (0 to 100), Windgrass ([1]; 31 g ai/ha) | Plant response rating (0 to 100), Windgrass ([1]; 62 g ai/ha) | Plant response rating, Windgrass ([1]; 125 g ai/ha) | Plant response rating, Windgrass ([1]; 250 g ai/ha) | Plant response rating (0 to 100), Barley [2] | Plant response rating, Barley ([2]; 62 g ai/ha) | Plant response rating, Barley ([2]; 125 g ai/ha) | Plant response rating, Barley ([2]; 250 g ai/ha) | Plant response rating (0 to 100), Canarygrass [3] | Plant response rating, Canarygrass ([3]; 62 g ai/ha) | Plant response rating, Canarygrass ([3]; 125 g ai/ha) | Plant response rating, Canarygrass ([3]; 250 g ai/ha) | Plant response rating (0 to 100), Chickweed [4] | Plant response rating, Chickweed ([4]; 62 g ai/ha) | Plant response rating, Chickweed ([4]; 125 g ai/ha) | Plant response rating, Chickweed ([4]; 250 g ai/ha) |
| --- | --- | --- | --- | --- | --- | --- | --- | --- | --- | --- | --- | --- | --- | --- | --- | --- |
| CCn1nc(C(F)(F)F)c(C[S+]([O-])c2cccc[n+]2[O-])c1OCC(F)(F)F (racemic) [Compound 65] | 50 | 90 | 100 | 100 | 0 | 20 | 40 | 40 | 0 | 20 | 20 | 25 | 30 | 40 | 80 | 100 |
| CCn1nc(C(F)(F)F)c(C(C)S(=O)(=O)c2cccc[n+]2[O-])c1OCC(F)(F)F (centres unmarked) [Compound 69] | 40 | 95 | 95 | 100 | 0 | 0 | 20 | 25 | 0 | 0 | 0 | 10 | 0 | 0 | 0 | 40 |
| CC(c1c(C(F)(F)F)nn(C)c1Cl)S(=O)(=O)c1ccc(Cl)c[n+]1[O-] (racemic) [Compound 40] | 45 | 45 | 85 | 85 | 0 | 0 | 0 | 0 | 0 | 0 | 0 | 30 | 0 | 0 | 0 | 0 |
| Cn1nc(C(F)(F)F)c(C[S+]([O-])c2cccc[n+]2[O-])c1OCC(F)(F)C(F)(F)F (centres unmarked) [Compound 78] | 0 | 0 | 95 | 100 | 0 | 0 | 0 | 0 | 0 | 0 | 0 | 0 | 0 | 0 |  |  |
